Test results as given in PubChem BioAssay AID463199 (Broad Institute, 2010).
Calls of active or inactive are those of the source.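 Rule for the calls: active = AC50, the dose giving half-maximal effect, exceeds a fixed cutoff for a compound that rescues yeast growth under heat; inactive = the rest, inconclusive results apart.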

The compounds below were run on S. cerevisiae Burl-1 ts mutant growth, BacTiter-Glo, 38.5C 24 h (assay: growth induction of Burl-1 ts yeast mutant, dose response, counter-screen for SUMOylation pathway inhibitor project, whole organism, S. cerevisiae, luminescence (AID 463199)).

Question: `COc1ccccc1C1NC(=O)CS1` (stereo not given) was tested. Which AC50 did it give?
Answer: > 42 µM (inactive)

Question: `CC1=C(C#N)S(=O)(=O)C(C#N)C(c2ccccc2)C1` (stereo not given) was tested. Which AC50 did it give?
Answer: > 42 µM (inactive)

Question: How did the AC50 turn out when `O=C(CCc1nc2sc3c(c2c(=O)[nH]1)CCCC3)N1CCN(c2ccccc2)CC1` was run?
Answer: > 42 µM (inactive)

Question: How did the AC50 turn out when `Cc1ccc2c(C)c(C(=O)N(C)C(C)c3ccncn3)oc2c1C` (stereo not given) was run?
Answer: > 42 µM (inactive)

Question: Which AC50 does the source give for `COc1ccc2c(CC(=O)Nc3ccc(OC)c(NS(=O)(=O)c4ccc(F)cc4)c3)coc2c1` here?
Answer: > 42 µM (inactive)

Question: How did the AC50 turn out when `CCCCN(C(=O)C1=COCCO1)c1c(N)n(Cc2ccccc2)c(=O)[nH]c1=O` was run?
Answer: > 42 µM (inactive)

Question: `Cc1ccc(C)c(S(=O)(=O)n2cnc3ccccc32)c1` was tested. Which AC50 did it give?
Answer: > 42 µM (inactive)

Question: Which AC50 does the source give for `COc1ccccc1-c1sc2ccccc2c1-c1ccc2c(c1)OCO2` here?
Answer: > 42 µM (inactive)

Question: How did the AC50 turn out when `C=CCn1c(CCC)nc2ccccc21` was run?
Answer: > 42 µM (inactive)

Question: For `COC(=O)Oc1ccc(/C=N/NS(=O)(=O)c2ccccc2)cc1OC`, which AC50 is on record?
Answer: > 42 µM (inactive)

Question: With `Cc1ccc(NC(=O)CCS(=O)(=O)c2ccc3nc(C)sc3c2)cc1` as the compound, how does the AC50 read?
Answer: > 42 µM (inactive)

Question: With `N#Cc1cc2c(nc1SCc1cccnc1)CCC2` as the compound, how does the AC50 read?
Answer: > 42 µM (inactive)

Question: How did the AC50 turn out when `Cc1ccc(-n2c(C)cc(/C=N/NC(=O)c3ccncc3)c2C)cc1C` was run?
Answer: > 42 µM (inactive)

Question: With `Cc1cc(CNC(=O)C2CCC(=O)N(Cc3ccccc3F)C2)on1` (stereo not given) as the compound, how does the AC50 read?
Answer: > 42 µM (inactive)

Question: `O=C1CC(c2c[nH]c3ccccc23)C(=O)N1c1ccccc1` (stereo not given) was tested. Which AC50 did it give?
Answer: > 42 µM (inactive)

Question: Which AC50 does the source give for `C=CCSc1nnc2c(n1)[nH]c1c(C)cccc12` here?
Answer: > 42 µM (inactive)

Question: How did the AC50 turn out when `Cc1cc(C)cc(C(=O)Oc2cc(C)[nH]c(=O)c2[N+](=O)[O-])c1` was run?
Answer: > 42 µM (inactive)

Question: How did the AC50 turn out when `COc1ccc(-c2oc3ccc(-c4cc(OC)c(OC)c(OC)c4)cc3c2C(=O)c2ccc(OC)nc2)cc1` was run?
Answer: > 42 µM (inactive)

Question: `CC1=NC2(CCCc3c2no[n+]3[O-])N(O)C1(C)C` (stereo not given) was tested. Which AC50 did it give?
Answer: > 42 µM (inactive)

Question: `CC(NC(=O)c1ccc(Cl)cc1)C(=O)N1CCCCC1` (stereo not given) was tested. Which AC50 did it give?
Answer: > 42 µM (inactive)

Question: `CS(=O)(=O)N1CCCC(C(=O)Nc2ccc(F)cc2F)C1` (stereo not given) was tested. Which AC50 did it give?
Answer: > 42 µM (inactive)

Question: With `c1ccc(CNc2ncnc3sc4c(c23)CCC4)nc1` as the compound, how does the AC50 read?
Answer: > 42 µM (inactive)

Question: With `CCOc1cc(/C=N/NC(=O)C(=O)N/N=C/c2ccc(O)c(OCC)c2)ccc1O` as the compound, how does the AC50 read?
Answer: > 42 µM (inactive)

Question: Which AC50 does the source give for `CCN1CCCC(NC(=O)c2scc3c2CCCC3)C1` (stereo not given) here?
Answer: > 42 µM (inactive)

Question: Which AC50 does the source give for `NC(=S)N/N=C/c1cccc(O)c1O` here?
Answer: > 42 µM (inactive)

Question: With `COc1ccccc1CNC(=O)C1CCC(CNS(=O)(=O)c2ccc(C)cc2)CC1` (stereo not given) as the compound, how does the AC50 read?
Answer: > 42 µM (inactive)

Question: `CC(=O)c1ccc(N2CCN(CC(=O)Nc3cc(C)on3)CC2)cc1` was tested. Which AC50 did it give?
Answer: > 42 µM (inactive)

Question: With `CC/C(=N\NC(=O)c1nnn(-c2nonc2N)c1-c1cccs1)c1ccccc1` as the compound, how does the AC50 read?
Answer: > 42 µM (inactive)

Question: How did the AC50 turn out when `COc1cccc(/C=N/n2cnc3ccccc32)c1OC` was run?
Answer: > 42 µM (inactive)

Question: For `CCCCOc1ccc(CSC(=N)N)cc1Cl`, which AC50 is on record?
Answer: > 42 µM (inactive)

Question: Which AC50 does the source give for `CN(C)C(=O)CNC(=O)C1CCCCC1` here?
Answer: > 42 µM (inactive)

Question: With `CCn1c(SCC(=O)Nc2nc(-c3ccccc3)cs2)nnc1-c1ccccc1` as the compound, how does the AC50 read?
Answer: > 42 µM (inactive)

Question: With `Cc1cc(C)c(NC(=O)CNC(=O)c2cc([N+](=O)[O-])ccc2N2CCOCC2)c(C)c1` as the compound, how does the AC50 read?
Answer: > 42 µM (inactive)

Question: Which AC50 does the source give for `COCCn1c(SCC(=O)N2CCCC2)nnc1-c1ccoc1C` here?
Answer: > 42 µM (inactive)

Question: With `CCN(C(=O)COC(=O)c1c(-c2ccccc2)noc1C)c1c(N)n(Cc2ccccc2)c(=O)[nH]c1=O` as the compound, how does the AC50 read?
Answer: > 42 µM (inactive)

Question: Which AC50 does the source give for `COc1ccc(C(=O)OCC(=O)c2ccc(C)c(S(=O)(=O)N3CCOCC3)c2)cc1OC` here?
Answer: > 42 µM (inactive)

Question: For `COc1ccc(-c2nnc(-c3cc4c(ccc5ccccc54)oc3=O)o2)cc1`, which AC50 is on record?
Answer: > 42 µM (inactive)

Question: `CCCCn1c(=O)[nH]c(=O)c2c1nc(COc1ccc(C#N)cc1)n2CCC` was tested. Which AC50 did it give?
Answer: > 42 µM (inactive)

Question: Which AC50 does the source give for `COc1ccc(-n2c(-c3ccccc3)nc3ccccc3c2=O)cc1` here?
Answer: > 42 µM (inactive)

Question: For `CC(C)C(NC(=O)c1ccccc1)C(=O)NCC(c1ccccc1)N(C)C` (stereo not given), which AC50 is on record?
Answer: > 42 µM (inactive)

Question: For `Cc1c(NC(=O)c2ccc(N(C)S(C)(=O)=O)cc2)c(=O)n(-c2ccccc2)n1C`, which AC50 is on record?
Answer: > 42 µM (inactive)

Question: How did the AC50 turn out when `CC1=C(C(N)=O)C(c2ccccn2)n2nc(SCc3ccccc3Cl)nc2N1` (stereo not given) was run?
Answer: > 42 µM (inactive)

Question: Which AC50 does the source give for `COc1ccccc1NC(=O)COC(=O)CC(C)(C)CC1=NS(=O)(=O)c2ccccc2N1` here?
Answer: > 42 µM (inactive)

Question: `CCNC(=O)NC1c2ccccc2CSc2ccccc21` (stereo not given) was tested. Which AC50 did it give?
Answer: > 42 µM (inactive)

Question: For `Cn1c(SCC(=O)Nc2nnc(-c3ccccc3)o2)nnc1C1CC1`, which AC50 is on record?
Answer: > 42 µM (inactive)

Question: How did the AC50 turn out when `COc1ccc(Cc2nnc(NCCO)[nH]c2=O)cc1` was run?
Answer: > 42 µM (inactive)

Question: With `CN=C1SC(CC(=O)Nc2sc3c(c2C#N)CCCC3)C(=O)N1C` (stereo not given) as the compound, how does the AC50 read?
Answer: > 42 µM (inactive)

Question: For `CCCCCCCCc1nc(SCC(C)=O)n[nH]1`, which AC50 is on record?
Answer: > 42 µM (inactive)

Question: How did the AC50 turn out when `COc1ccc(OC)c(NC(=O)CN(C)S(=O)(=O)c2ccc(Cl)cc2)c1` was run?
Answer: > 42 µM (inactive)

Question: How did the AC50 turn out when `NC(=O)c1nsc(C(=O)N(Cc2ccc(F)cc2)C(C(=O)NC2CCCC2)c2ccco2)c1N` (stereo not given) was run?
Answer: > 42 µM (inactive)
